pEC50: −log10 of the molar value. Where two headings read alike, the source gives them in different places.
How the values were obtained:
[1] = system: type I interferon expression in THP-1 cells; conditions: reference compound 2′3′-RR-(AXA) in patent CN108430503A; read-out: EC50 value of the control drug; cited from earlier work
CT-26-Luc cells = assay: Anticancer activity assay in CT-26 mouse tumor model; assay type: in vivo, mice; conditions: 1 mg/kg intratumoral injection, once every two days, three times, FIG. 4 and FIG. 5
Method: Anticancer Activity Assay of the Compound 8
Mice: BABL/C female mice, weight 18 g to 22 g. The source is the animal experiment center in Guangdong province, and the mice are fed with pellet feed and freely eat and drink water.
Tumor Cell Lines: CT-26-Luc Cells […]
The administration method includes the following steps: the administration was started at the 10th day after tumor inoculation growth, and 50 microliters/mouse was administered once every two days for a total of three times by intratumoral injection. The growth of tumors in mice was detected by chemiluminescence using the IVIS Spectrum Imaging System. […] After imaging, fluorescence values were converted to photon numbers and the total number of fluorescence photons for each experimental group was counted. […] In which the numbers in FIG. 4a, FIG. 4b, FIG. 4c, FIG. 4d, FIG. 4e and FIG. 4f represent the total number of fluorescence photons in the circular region (ROI, region of interest), and FIG. 4g and FIG. 4h are statistical graphs of the total number of fluorescence photons for each experimental group, respectively. […]

[2] = system: type I interferon expression in THP-1 cells; assay: Type I interferon activity assay in monocytic cell line THP-1 (THP-1-Lucia) cells; assay type: cell-based; conditions: for pEC50: Homo sapiens, THP-1, dose-response curves, serial dilutions, FIG. 3, read-out: EC50 causing type I interferon expression in THP-1 cell line
Method: Activity Assay of Two Cyclic Dinucleotide Prodrug Molecules in Monocytic Cell Line THP-1 Cells
The THP-1-Lucia cells confluency reached about 80%, and the compound 8, the compound 16 and the drug ADU-S100 are directly dissolved into a culture medium according to a certain concentration and added into a 24-well plate, wherein four wells are parallel. The cells were maintained under the culture condition of 37° C. and 5% CO2 for 24 h. After the end of the culture, luciferase activity was measured. Wherein, the test results of the type I interferon of the compound 8, the compound 16 and the drug ADU-S100 in the monocyte cell line THP-1 under the action concentration of 10 μM are shown in FIG. 2; EC50 values for the compound 8 and the compound 16 to cause type I interferon expression in THP-1 cell lines were then determined by dose-response curves for serial dilutions at various concentrations, as shown in FIG. 3.

[3] = Determination of the oil-water partition coefficient log P (n-octanol/water, HPLC); assay type: physicochemical; conditions: pH 7; n-octanol / purified water (10 mM K2HPO4 pH7.0), HPLC peak area ratio, three repeats
Method: Determination of the Oil-Water Partition Coefficient Log P of the Two Cyclic Dinucleotide Prodrug Molecules.
1) Preparing the compound solution: a certain amount of the compound 8, the compound 16 and the compound cddA35 were weighed and dissolved in DMSO solutions respectively to prepare mother solutions with a concentration of 1 mg/mL. 2) 20 μL of the prepared mother liquor was added to an EP tube containing a mixture of 1 mL of n-octanol and 1 mL of purified water (10 mM K2HPO4 pH7.0), vortexed for 2 h with shaking, and allowed to stand overnight at 4° C. for phase separation, and 400 μL of solution from each phase was separated. Centrifuging at 3000 rpm for 5 min, filtering with corresponding […] filter membrane, measuring the two-phase absorption peak area under the same HPLC parameter condition, repeating the experiment for three times, and calculating log value of the peak area ratio of n-octyl alcohol phase and water phase to obtain the log P value of the target compound, as shown in Table 2.
HPLC conditions: the instrument used by an Agilent 1260 HPLC, column: Agilent ZORABX SB-C185 μm [4.6×150 mm], column temperature 25° C., sample injection 10 μL, detection wavelength was […], chromatographic gradient method as shown in Table 1 below.

STING = assay: Dual-fluorescence reporter gene activity assay in HEK293T cells (hSTING-wt, IFNβ promoter luciferase); assay type: cell-based, human; conditions: 5 μM, without any transfection reagent, 24 h, FIG. 1
Method: Activity assay of two cyclic dinucleotide prodrug molecules in HEK293T cells
The principle is as follows: dual-fluorescence reporter gene experiments: After entering a cell, the cyclic dinucleotide prodrug molecule passes through thioesterase in the cytoplasm of the cell or a reducing environment, so that thioester bond breakage or disulfide bond breakage is carried out, then an intermediate is obtained, a sulfur atom at a p position can nucleophilically attack a carbon atom at the a position, cyclic thioethane is removed, cyclic dinucleotides with a phosphodiester structure of a parent drug with negative charges are released, the intracellular STING protein is combined and activated, interferon regulatory factor 3 (IRF3) is phosphorylated, phosphorylated IRF3 enters into the nucleus and combined with the promoter region of a interferon-β gene to cause the expression of interferon, and based on these, the interferon gene promoter is introduced into a promoter of firefly luciferase, so that the cell activity of the prodrug molecule can be measured by using a dual-fluorescence reporter gene method.
(1) preparing the compound solution: the compound 8 and the compound 16 were dissolved in DMSO, respectively, to obtain a final concentration of 1 mM. cddA35 was dissolved in water and similarly prepared at a concentration of 1 mM. […]

Row | pEC50 [2] | logP [3] | Compound | pEC50 [1] | growth of the tumor in the mice (CT-26-Luc cells) | expression of type I interferon in THP-1 cell line ([2]; action concentration of 10 μM, without any transfection reagent, 24 h, FIG. 2, activity much higher than ADU-S100) | dual-fluorescence result: crossing cell membranes and activating STING pathway / expression of interferon (STING)
1 | – | – | Nc1ncnc2c1ncn2[C@@H]1O[C@@H]2COP(=O)([S-])O[C@@H]3[C@H](O)[C@@H](COP([O-])(=S)O[C@H]2[C@H]1O)O[C@H]3n1cnc2c(N)ncnc21.[Na+].[Na+] (stereo partly shown) [ADU-S100] | 4.38 | only controlled | – | –
2 | 8.36 | 1.93 | CC(C)(C)C(=O)SCCOP1(=O)OC[C@H]2O[C@@H](n3cnc4c(N)ncnc43)C[C@H]2OP(=O)(OCCSC(=O)C(C)(C)C)OC[C@H]2O[C@@H](n3cnc4c(N)ncnc43)CC2O1 (stereo partly shown) [Compound 8] | – | – | – | –
3 | 6.45 | 0.85 | Nc1ncnc2c1ncn2[C@H]1CC2OP(=O)(OCCSSc3ccccn3)OC[C@H]3O[C@@H](n4cnc5c(N)ncnc54)CC3OP(=O)(OCCSSc3ccccn3)OC[C@H]2O1 (stereo partly shown) [Compound 16] | – | – | strong expression of type I interferon | can autonomously cross cell membranes without any transfection reagent
4 | – | -3.43 | Nc1ncnc2c1ncn2[C@H]1CC2OP(=O)(O)OC[C@H]3O[C@@H](n4cnc5c(N)ncnc54)CC3OP(=O)(O)OC[C@H]2O1 (stereo partly shown) [cddA35, reference compound] | – | – | – | hardly crosses cell membranes

From patent publication US12257265B2, “Cyclic dinucleotide prodrug molecule, preparation method therefor and application thereof” (SHENZHEN YING BIOPHARMACEUTICAL CO., LTD., priority 2019, dated 2025)
